The subject of the data set is CCRIS mutagenicity, Ames/micronucleus/aberration tests. Nature of the data set: CCRIS mutagenicity studies.
Setting [1] is: Test System: AMES SALMONELLA TYPHIMURIUM, Strain/Indicator: TA98, Metabolic Activation: NONE, Method: PREINCUBATION
The mark [2] stands for this setting: Test System: AMES SALMONELLA TYPHIMURIUM, Strain/Indicator: TA100, Metabolic Activation: NONE, Method: PREINCUBATION
[3] abbreviates: Test System: AMES SALMONELLA TYPHIMURIUM, Strain/Indicator: TA1535, Metabolic Activation: NONE, Method: PREINCUBATION

The values that follow come from PubChem BioAssay AID1259407 (Chemical Carcinogenesis Research Information System (CCRIS), 2018).

SMILES strings stand for the structures. The source made the active and inactive calls. How the calls were made is not given here.

On to `C=C[Si](C)(Cl)Cl`, for which the mutagenic call is, setting by setting: (Test System: AMES SALMONELLA TYPHIMURIUM, Strain/Indicator: TA98, Metabolic Activation: HAMSTER, LIVER, S-9, AROCLOR 1254 (10%), Method: STANDARD PLATE) “inactive; negative”; (Test System: AMES SALMONELLA TYPHIMURIUM, Strain/Indicator: TA98, Metabolic Activation: NONE, Method: STANDARD PLATE) “inactive; negative”; (Test System: AMES SALMONELLA TYPHIMURIUM, Strain/Indicator: TA98, Metabolic Activation: RAT, LIVER, S-9, AROCLOR 1254 (10%), Method: STANDARD PLATE) “inactive; negative”; (Test System: AMES SALMONELLA TYPHIMURIUM, Strain/Indicator: TA100, Metabolic Activation: HAMSTER, LIVER, S-9, AROCLOR 1254 (10%), Method: STANDARD PLATE) “inactive; negative”; (Test System: AMES SALMONELLA TYPHIMURIUM, Strain/Indicator: TA100, Metabolic Activation: NONE, Method: STANDARD PLATE) “inactive; negative”; (Test System: AMES SALMONELLA TYPHIMURIUM, Strain/Indicator: TA100, Metabolic Activation: RAT, LIVER, S-9, AROCLOR 1254 (10%), Method: STANDARD PLATE) “inactive; negative”. Further, the mutagenic call by setting is: (Test System: AMES SALMONELLA TYPHIMURIUM, Strain/Indicator: TA1535, Metabolic Activation: HAMSTER, LIVER, S-9, AROCLOR 1254 (10%), Method: STANDARD PLATE) “active; positive”; (Test System: AMES SALMONELLA TYPHIMURIUM, Strain/Indicator: TA1535, Metabolic Activation: NONE, Method: STANDARD PLATE) “inactive; negative”; (Test System: AMES SALMONELLA TYPHIMURIUM, Strain/Indicator: TA1535, Metabolic Activation: RAT, LIVER, S-9, AROCLOR 1254 (10%), Method: STANDARD PLATE) “inactive; negative”; (Test System: AMES SALMONELLA TYPHIMURIUM, Strain/Indicator: TA1537, Metabolic Activation: HAMSTER, LIVER, S-9, AROCLOR 1254 (10%), Method: STANDARD PLATE) “inactive; negative”; (Test System: AMES SALMONELLA TYPHIMURIUM, Strain/Indicator: TA1537, Metabolic Activation: NONE, Method: STANDARD PLATE) “inactive; negative”; (Test System: AMES SALMONELLA TYPHIMURIUM, Strain/Indicator: TA1537, Metabolic Activation: RAT, LIVER, S-9, AROCLOR 1254 (10%), Method: STANDARD PLATE) “inactive; negative”. Also, the mutagenic call runs as follows: (Test System: AMES SALMONELLA TYPHIMURIUM, Strain/Indicator: TA1538, Metabolic Activation: HAMSTER, LIVER, S-9, AROCLOR 1254 (10%), Method: STANDARD PLATE) “inactive; negative”; (Test System: AMES SALMONELLA TYPHIMURIUM, Strain/Indicator: TA1538, Metabolic Activation: NONE, Method: STANDARD PLATE) “inactive; negative”; (Test System: AMES SALMONELLA TYPHIMURIUM, Strain/Indicator: TA1538, Metabolic Activation: RAT, LIVER, S-9, AROCLOR 1254 (10%), Method: STANDARD PLATE) “inactive; negative”; (Test System: MOUSE LYMPHOMA, Strain/Indicator: L5178Y (TK+/TK-), Metabolic Activation: NONE, Method: SUSPENSION/PLATE) “inactive; negative. reevaluation of results: negative”; (Test System: MOUSE LYMPHOMA, Strain/Indicator: L5178Y (TK+/TK-), Metabolic Activation: RAT, LIVER, S-9, AROCLOR 1254, Method: SUSPENSION/PLATE) “inactive; negative. reevaluation of results: inconclusive”.
Consider `CC1(C)C(=O)N(Cl)C(=O)N1Cl`, for which the mutagenic call is, setting by setting: (End Point: IN VITRO CHROMOSOMAL ABERRATIONS, Test System: CHINESE HAMSTER OVARY CELLS, Metabolic Activation: NONE) “inactive; negative”; (End Point: IN VITRO CHROMOSOMAL ABERRATIONS, Test System: CHINESE HAMSTER OVARY CELLS, Metabolic Activation: RAT, LIVER, S-9, AROCLOR 1254) “inactive; negative”; (Test System: AMES SALMONELLA TYPHIMURIUM, Strain/Indicator: TA98, Metabolic Activation: HAMSTER, LIVER, S-9, AROCLOR 1254, Method: PREINCUBATION) “inactive; negative”; under setting [1], “inactive; negative”; (Test System: AMES SALMONELLA TYPHIMURIUM, Strain/Indicator: TA98, Metabolic Activation: RAT, LIVER, S-9, AROCLOR 1254, Method: PREINCUBATION) “inactive; negative”; (Test System: AMES SALMONELLA TYPHIMURIUM, Strain/Indicator: TA100, Metabolic Activation: HAMSTER, LIVER, S-9, AROCLOR 1254, Method: PREINCUBATION) “inactive; negative”. Further, the mutagenic call by setting is: under setting [2], “inactive; negative”; (Test System: AMES SALMONELLA TYPHIMURIUM, Strain/Indicator: TA100, Metabolic Activation: RAT, LIVER, S-9, AROCLOR 1254, Method: PREINCUBATION) “inactive; negative”; (Test System: AMES SALMONELLA TYPHIMURIUM, Strain/Indicator: TA1535, Metabolic Activation: HAMSTER, LIVER, S-9, AROCLOR 1254, Method: PREINCUBATION) “inactive; negative”; under setting [3], “inactive; negative”; (Test System: AMES SALMONELLA TYPHIMURIUM, Strain/Indicator: TA1535, Metabolic Activation: RAT, LIVER, S-9, AROCLOR 1254, Method: PREINCUBATION) “inactive; negative”; (Test System: AMES SALMONELLA TYPHIMURIUM, Strain/Indicator: TA1537, Metabolic Activation: HAMSTER, LIVER, S-9, AROCLOR 1254, Method: PREINCUBATION) “inactive; negative”. The mutagenic call runs as follows: (Test System: AMES SALMONELLA TYPHIMURIUM, Strain/Indicator: TA1537, Metabolic Activation: NONE, Method: PREINCUBATION) “inactive; negative”; (Test System: AMES SALMONELLA TYPHIMURIUM, Strain/Indicator: TA1537, Metabolic Activation: RAT, LIVER, S-9, AROCLOR 1254, Method: PREINCUBATION) “inactive; negative”.
With `Nc1ccc(NC(=O)c2ccc(N)cc2)cc1`, the mutagenic call runs as follows: under setting [1], “inactive; negative”; (Test System: AMES SALMONELLA TYPHIMURIUM, Strain/Indicator: TA98, Metabolic Activation: RAT LIVER S-9, PHENOBARBITAL AND BETA-NAPHTHOFLAVONE, Method: PREINCUBATION) “active; positive”; under setting [2], “inactive; negative”; (Test System: AMES SALMONELLA TYPHIMURIUM, Strain/Indicator: TA100, Metabolic Activation: RAT LIVER S-9, PHENOBARBITAL AND BETA-NAPHTHOFLAVONE, Method: PREINCUBATION) “inactive; negative”; under setting [3], “inactive; negative”; (Test System: AMES SALMONELLA TYPHIMURIUM, Strain/Indicator: TA1535, Metabolic Activation: RAT LIVER S-9, PHENOBARBITAL AND BETA-NAPHTHOFLAVONE, Method: PREINCUBATION) “inactive; negative”. Also, the mutagenic call is “active; positive” (Test System: AMES SALMONELLA TYPHIMURIUM, Strain/Indicator: TA1537, Metabolic Activation: RAT LIVER S-9, PHENOBARBITAL AND BETA-NAPHTHOFLAVONE, Method: PREINCUBATION); “inactive; negative” (Test System: E.COLI, Strain/Indicator: WP2UVRA, Metabolic Activation: NONE, Method: PREINCUBATION); “inactive; negative” (Test System: E.COLI, Strain/Indicator: WP2UVRA, Metabolic Activation: RAT LIVER S-9, PHENOBARBITAL AND BETA-NAPHTHOFLAVONE, Method: PREINCUBATION).
For `CC(=O)N(O)c1ccc2ccccc2c1`, the mutagenic call by setting is: under setting [1], “inactive; negative”; (Test System: AMES SALMONELLA TYPHIMURIUM, Strain/Indicator: TA98, Metabolic Activation: RAT, LIVER, CYTOSOL, Method: PREINCUBATION) “inactive; negative”; (Test System: AMES SALMONELLA TYPHIMURIUM, Strain/Indicator: TA98, Metabolic Activation: RAT, LIVER, MICROSOMES, Method: PREINCUBATION) “active; positive”.
